Source: patent EP0430884B1, “Insecticides and antiparasitic agents” (CIBA-GEIGY AG, priority 1989, dated 1991)

Tested on: Haemonchus contortus und Trichostrongylus colubriformis
Assay: B-3 test on sheep infected with nematodes (worm egg count in faeces)
Type: in vivo, Schafe
Excerpt: Milbemycine mit einer 13β-Alkylthiogruppe sind als Insektizide und Parasitizide aus der Europäischen Offenlegungsschrift EP-0,184,173 bzw. dem korrespondierenden Britischen Patent GB-2,167,751B bekannt. Die biologische Aktivität der 13β-Ethylthiomilbemycine kann man jedoch überraschenderweise durch Einführung der erfindungsgemässen, terminalen [drawing 26] (worin R₃ und X die unter Formel I angegebenen Bedeutungen haben) in die 2-Position der 13β-Ethylgruppe signifikant erhöhen. Vergleicht man z.B. die Verbindung Nr. 1.14 aus obigen Publikationen [drawing 27] mit der erfindungsgemässen Substanz Nr. 1.13 (vgl. Tab. 1) [drawing 28] gemäss dem weiter unten beschriebenen biologischen Beispiel B-3 an Schafen, die mit den Nematoden Haemonchus contortus und Trichostrongylus colubriformis infiziert wurden, so findet man bei einmaliger intraruminaler Applikation von 0,1 mg Aktivsubstanz/kg Körpergewicht folgende Resultate (angegeben in Reduktion der Wurmeier im Kot verglichen mit der Zahl der Eier bei infizierten, aber unbehandelten Schafen):
Der Wirkstoff wird als Suspension formuliert mit einer Magensonde oder durch Injektion in den Pansen eines Schafes gegeben, das mit Haemonchus contortus und Trychostrongylus colubriformis künstlich infiziert worden ist. Pro Dosis werden 1 bis 3 Tiere verwendet. […]

Question: With `CC[C@H]1O[C@]2(CC[C@@H]1C)C[C@@H]1C[C@@H](C/C=C(\C)[C@H](SCCc3ccc(NC(=O)OC)cc3)[C@@H](C)/C=C/C=C3\CO[C@@H]4[C@H](O)C(C)=C[C@@H](C(=O)O1)[C@]34O)O2` [1.13, 13β-(2-[4-(Methoxycarbonylamino)phenyl]ethylthio)milbemycin A4] as the compound, how does the “Reduktion der Wurmeier im Kot verglichen mit der Zahl der Eier bei infizierten, aber unbehandelten Schafen” value (Versuch 1, single intraruminal application of 0,1 mg Aktivsubstanz/kg Körpergewicht) read?
Answer: 99%

Question: What about the “Reduktion der Wurmeier im Kot verglichen mit der Zahl der Eier bei infizierten, aber unbehandelten Schafen” value (Versuch 2 (Wiederholung von 1), single intraruminal application of 0,1 mg Aktivsubstanz/kg Körpergewicht) of the same compound?
Answer: 93%
